Tests used:
[1] = system: Staphylococcus aureus DSM 1104; assay: Antibacterial testing (CFU/ml count) against S. aureus; assay type: cell-based; settings: photosensitizer 100, 10 and 1 μM; for antibacterial activity against S. aureus in the absence of light: absence of light (dark toxicity control), 30 min incubation
Experimental: The organisms studied were Staphylococcus aureus DSM 1104, Gram-positive and Pseudomonas aeruginosa DSM 1117, Gram-negative. Cultures cells are suspended in sterile phosphate-buffered saline (PBS) or sterile PBS supplemented with 10% sterile horse blood serum. The bacterial suspensions are placed into sterile black well plates with clear bottoms. Concentrations of photosensitizer used in the study were as follows: 100 μM, 10 μM and 1 μM. After an incubation time period of 30 minutes, the samples are exposed to white light, with a power density and irradiation time resulting in an energy fluency of about 100 J/cm^2. Control plates contained no photosensitizer and are not exposed to laser light. The control samples for dark toxicity are only exposed to photosensitizer without any illumination. After irradiation, the samples are removed and suspended again in the culture media. The numbers of colony-forming units (CFU/ml) are enumerated after an adequate incubation time period.

[2] = system: HT 29 and other cell lines; assay: Cell tests (XTT cell viability), dark toxicity, in HT 29 and other cell lines; assay type: cell-based; settings: 2 or 10 μM photosensitizer, 24 h incubation, XTT assay
Experimental: The photosensitizing activity was determined in the following cell lines: • HT29 (human colon adenocarcinoma cell line) • L929 (mouse fibroblast cell line) • A431 (human epidermoid carcinoma cell line) • A253 (submaxillary salivary gland, epidermoid cell line) • CAL-27 (human tongue squamous cell carcinoma cell line) • J774A.1 (Mouse BALB/c monocyte macrophage).
The cell lines were grown in DMEM (c.c.pro GmbH) supplemented with 10% heat-inactivated fetal calf serum (FCS, c.c.pro GmbH), 1% penicillin (10000 IU) and streptomycin (10000 μg/ml, c.c.pro GmbH). Cells were kept as a monolayer culture in a humidified incubator (5% CO2 in air at 37° C.). A photosensitizer stock solution (2 mM) was performed in DMSO and was kept in the dark at 4° C. Further dilution was performed in DMEM medium without phenol red supplemented with 10% FCS to reach a final photosensitizer concentration of 2 or 10 μM, respectively. After seeding the cells in micro plates, the cells were incubated with fresh medium (DMEM without phenol red) containing 10% FCS with 2 or 10 μM of the photosensitizer for 24 h before light exposure. Before photosensitization, cells were washed, cell culture medium was exchanged with DMEM without phenol red and 10% FCS, then irradiated at room temperature with white light source at a fixed fluence rate of about 100 mW/cm^2 (50 J/cm^2). Following irradiation, cells were incubated in a humidified incubator (5% CO2 in air at 37° C.) for 24 h until cell viability assay. The cell viability was assessed by the XTT assay. 500 mg XTT (sodium 3′-[phenyl-aminocarbonyl)-3,4-tetrazolium]-bis(4-methoxy-6-nitro)benzene sulfonic acid, Applichem GmbH) is dissolved in 500 ml PBS-Buffer (without Ca^2+ and Mg^2) and sterile filtered. Solution was stored in the dark at −20° C. until use. A sterile solution containing PMS (N-methyl dibenzopyrazine methyl sulfate, Applichem GmbH) was needed as an activation reagent for the XTT. 0.383 mg PMS was dissolved in 1 ml PBS-Buffer. […] The absorbance of the samples was measured with a microplate reader (Infinite 200, Tecan Group Ltd.) at a wavelength of 490 nm.

Substance | antibacterial activity against S. aureus in the absence of light [1] | toxicity to cells in the absence of light (dark toxicity) [2] | antibacterial activity in the presence of complex media (serum addition) ([1]; PBS supplemented with 10% sterile horse blood serum)
Bis(2-phenylpyridyl){5-[2,3,5,6-tetrafluoro-4-(1′-thio-β-D-glucosyl)phenyl]-dipyrrinato}iridium(III) [Example 3.3] | high antibacterial activity | – | –
[5-(4-Butyloxy-2,3,5,6-tetrafluorophenyl)dipyrrinato]chlorido-(pentamethylcyclopentadienyl)iridium(III) [Example 1.3] | – | non-toxic | –
Chlorido{5-[4-(N,N-dibutylamino)-3-nitrophenyl]dipyrrinato}(pentamethyl-cyclopentadienyl)iridium(III) [Example 1.6] | – | non-toxic | –
{5-[4-(N-2-Hydroxyethylamino)-2,3,5,6-tetrafluorophenyl]dipyrrinato}bis(2-phenyl-pyridyl)iridium(III) [Example 2.1] | high antibacterial activity | – | –
{5-[4-(N-Butylamino)-2,3,5,6-tetrafluorophenyl]dipyrrinato}chlorido-(pentamethylcyclopentadienyl)iridium(III) [Example 1.2] | – | non-toxic | –
Bis(2-phenylpyridyl){5-[2,3,5,6-tetrafluoro-4-(1′-thio-β-D-galactosyl)phenyl]-dipyrrinato}iridium(III) [Example 3.4] | high antibacterial activity | – | antibacterial activity is also observed

Reference: patent US12187749B2, “Application of dipyrrinato-iridium complexes in anti-tumor and anti-bacterial therapy” (BIOLITEC UNTERGEHMENSBETEILIGUNGS II AG, priority 2020, dated 2025)
